# Results reported in ChEMBL document CHEMBL4020771, “Activity of resveratrol triesters against primary acute lymphoblastic leukemia cells” (Bioorg Med Chem Lett, 2017).
# Active and inactive are the calls of the source. The rule behind the calls is not given here.
# Key:
# [1] = Cell cycle arrest in human ALL5 cells assessed as accumulation at S phase at 17 uM after 96 hrs by propidium iodide staining based flow cytometric analysis (reference value: 11.7 %); format: functional
# [2] = Cell cycle arrest in human ALL5 cells assessed as accumulation at G2 phase at 17 uM after 96 hrs in presence of CDK4/6 inhibitor palbociclib by propidium iodide staining based flow cytometric analysis (reference value: 0.64%); format: functional
# [3] = Cell cycle arrest in human ALL5 cells assessed as accumulation at G2 phase at 17 uM after 48 hrs by propidium iodide staining based flow cytometric analysis (reference value: 13.6 %); format: functional
# [4] = Cell cycle arrest in human ALL5 cells assessed as accumulation at G2 phase at 17 uM after 120 hrs by propidium iodide staining based flow cytometric analysis (reference value: 13.6 %); format: functional
# [5] = Cell cycle arrest in human ALL5 cells assessed as accumulation at G1 phase at 17 uM after 96 hrs in presence of CDK4/6 inhibitor palbociclib by propidium iodide staining based flow cytometric analysis (reference value: 97.8%); format: functional
# [6] = Cell cycle arrest in human ALL5 cells assessed as accumulation at G1 phase at 17 uM after 48 hrs by propidium iodide staining based flow cytometric analysis (reference value: 70.5 %); format: functional
# [7] = Cell cycle arrest in human ALL5 cells assessed as accumulation at S phase at 17 uM after 120 hrs by propidium iodide staining based flow cytometric analysis (reference value: 11.7 %); format: functional
# [8] = Cell cycle arrest in human ALL5 cells assessed as accumulation at G1 phase at 17 uM after 96 hrs by propidium iodide staining based flow cytometric analysis (reference value: 70.5 %); format: functional
# ALL5 [9] = assay: Increase in p53 expression in human ALL5 cells at 17 uM after 96 hrs by Western blot analysis; format: functional, cell-based
# [10] = Cell cycle arrest in human ALL5 cells assessed as accumulation at G1 phase at 17 uM after 120 hrs by propidium iodide staining based flow cytometric analysis (reference value: 70.5 %); format: functional
# [11] = Cell cycle arrest in human ALL5 cells assessed as accumulation at S phase at 17 uM after 48 hrs by propidium iodide staining based flow cytometric analysis (reference value: 11.7 %); format: functional
# [12] = Cell cycle arrest in human ALL5 cells assessed as accumulation at G2 phase at 17 uM after 96 hrs by propidium iodide staining based flow cytometric analysis (reference value: 13.6 %); format: functional
# [13] = Cell cycle arrest in human ALL5 cells assessed as accumulation at subG1 phase at 17 uM after 96 hrs in presence of CDK4/6 inhibitor palbociclib by propidium iodide staining based flow cytometric analysis (reference value: 1.47%); format: functional
# [14] = Cell cycle arrest in human ALL5 cells assessed as accumulation at subG1 phase at 17 uM after 120 hrs by propidium iodide staining based flow cytometric analysis (reference value: 3.44 %); format: functional
# [15] = Cell cycle arrest in human ALL5 cells assessed as accumulation at subG1 phase at 17 uM after 96 hrs by propidium iodide staining based flow cytometric analysis (reference value: 3.44 %); format: functional
# [16] = Cytotoxicity against human ALL5 cells after 120 hrs by MTT method; format: functional, cell-based; settings: ALL5, 120 h
# HeLa = assay: Cytotoxicity against human HeLa cells up to 10 uM after 72 hrs by MTT method; format: functional, cell-based
# [17] = Cell cycle arrest in human ALL5 cells assessed as accumulation at S phase at 17 uM after 96 hrs in presence of CDK4/6 inhibitor palbociclib by propidium iodide staining based flow cytometric analysis (reference value: 0.07%); format: functional
# [18] = Cell cycle arrest in human ALL5 cells assessed as accumulation at subG1 phase at 17 uM after 48 hrs by propidium iodide staining based flow cytometric analysis (reference value: 3.44 %); format: functional
# [19] = Cell cycle arrest in human ALL5 cells assessed as accumulation at subG1 phase at 25 uM after 120 hrs by propidium iodide staining based flow cytometric analysis (reference value: 3.44 %); format: functional
# [20] = Cell cycle arrest in human ALL5 cells assessed as accumulation at G2 phase at 25 uM after 120 hrs by propidium iodide staining based flow cytometric analysis (reference value: 13.6 %); format: functional
# [21] = Cell cycle arrest in human ALL5 cells assessed as accumulation at S phase at 25 uM after 48 hrs by propidium iodide staining based flow cytometric analysis (reference value: 11.7 %); format: functional
# [22] = Cell cycle arrest in human ALL5 cells assessed as accumulation at G2 phase at 25 uM after 96 hrs in presence of CDK4/6 inhibitor palbociclib by propidium iodide staining based flow cytometric analysis (reference value: 0.64%); format: functional
# ALL5 [23] = assay: Increase in p53 expression in human ALL5 cells at 25 uM after 96 hrs by Western blot analysis; format: functional, cell-based
# [24] = Cell cycle arrest in human ALL5 cells assessed as accumulation at G1 phase at 25 uM after 120 hrs by propidium iodide staining based flow cytometric analysis (reference value: 70.5 %); format: functional
# [25] = Cell cycle arrest in human ALL5 cells assessed as accumulation at G2 phase at 25 uM after 96 hrs by propidium iodide staining based flow cytometric analysis (reference value: 13.6 %); format: functional
# [26] = Cell cycle arrest in human ALL5 cells assessed as accumulation at subG1 phase at 25 uM after 48 hrs by propidium iodide staining based flow cytometric analysis (reference value: 3.44 %); format: functional
# [27] = Cell cycle arrest in human ALL5 cells assessed as accumulation at S phase at 25 uM after 96 hrs by propidium iodide staining based flow cytometric analysis (reference value: 11.7 %); format: functional
# [28] = Cell cycle arrest in human ALL5 cells assessed as accumulation at subG1 phase at 25 uM after 96 hrs by propidium iodide staining based flow cytometric analysis (reference value: 3.44 %); format: functional
# [29] = Cell cycle arrest in human ALL5 cells assessed as accumulation at S phase at 25 uM after 120 hrs by propidium iodide staining based flow cytometric analysis (reference value: 11.7 %); format: functional
# [30] = Cell cycle arrest in human ALL5 cells assessed as accumulation at S phase at 25 uM after 96 hrs in presence of CDK4/6 inhibitor palbociclib by propidium iodide staining based flow cytometric analysis (reference value: 0.07%); format: functional
# [31] = Cell cycle arrest in human ALL5 cells assessed as accumulation at G2 phase at 25 uM after 48 hrs by propidium iodide staining based flow cytometric analysis (reference value: 13.6 %); format: functional
# [32] = Cell cycle arrest in human ALL5 cells assessed as accumulation at G1 phase at 25 uM after 48 hrs by propidium iodide staining based flow cytometric analysis (reference value: 70.5 %); format: functional
# [33] = Cell cycle arrest in human ALL5 cells assessed as accumulation at G1 phase at 25 uM after 96 hrs in presence of CDK4/6 inhibitor palbociclib by propidium iodide staining based flow cytometric analysis (reference value: 97.8%); format: functional
# [34] = Cell cycle arrest in human ALL5 cells assessed as accumulation at subG1 phase at 25 uM after 96 hrs in presence of CDK4/6 inhibitor palbociclib by propidium iodide staining based flow cytometric analysis (reference value: 1.47%); format: functional
# [35] = Cell cycle arrest in human ALL5 cells assessed as accumulation at G1 phase at 25 uM after 96 hrs by propidium iodide staining based flow cytometric analysis (reference value: 70.5 %); format: functional
# [36] = Cell cycle arrest in human ALL5 cells assessed as accumulation at G2 phase at 1 uM after 72 hrs by propidium iodide staining based flow cytometric analysis (reference value: 19.1%); format: functional
# [37] = Cell cycle arrest in human ALL5 cells assessed as accumulation at S phase at 1 uM after 72 hrs by propidium iodide staining based flow cytometric analysis (reference value: 15.2%); format: functional
# [38] = Cell cycle arrest in human ALL5 cells assessed as accumulation at G1 phase at 1 uM after 72 hrs by propidium iodide staining based flow cytometric analysis (reference value: 64.4%); format: functional
# [39] = Cell cycle arrest in human ALL5 cells assessed as accumulation at subG1 phase at 1 uM after 72 hrs by propidium iodide staining based flow cytometric analysis (reference value: 0.54 %); format: functional
structure (smiles),measurement,setting,value
CC(=O)Oc1ccc(/C=C/c2cc(OC(C)=O)cc(OC(C)=O)c2)cc1 [TRIACETYLRESVERATROL],Activity,[1],16%
same,Activity,[2],0.54%
same,Activity,[3],3.23%
same,Activity,[4],7.59%
same,Activity,[5],98.1%
same,Activity,[6],62.5%
same,Activity,[7],12.5%
same,Activity,[8],15.5%
same,Activity,ALL5 [9],Active
same,Activity,[10],18.5%
same,Activity,[11],20.8%
same,Activity,[12],13.1%
same,Activity,[13],1.33%
same,Activity,[14],60.9%
same,Activity,[15],54.6%
same,IC50,[16],3.4 µM
same,Activity,HeLa,inactive
same,Activity,[17],0.06%
same,Activity,[18],12.3%
O=C(CCl)Oc1ccc(/C=C/c2cc(OC(=O)CCl)cc(OC(=O)CCl)c2)cc1,IC50,[16],10 to 10.5 µM
Oc1ccc(/C=C/c2cc(O)cc(O)c2)cc1 [RESVERATROL],IC50,[16],10.5 µM
COc1cccc(C(=O)Oc2ccc(/C=C/c3cc(OC(=O)c4cccc(OC)c4OC)cc(OC(=O)c4cccc(OC)c4OC)c3)cc2)c1OC,IC50,[16],> 10 µM
CCCCCCCCCC(=O)Oc1ccc(/C=C/c2cc(OC(=O)CCCCCCCCC)cc(OC(=O)CCCCCCCCC)c2)cc1,IC50,[16],> 10 µM
O=C(Oc1ccc(/C=C/c2cc(OC(=O)c3c(Cl)cccc3Cl)cc(OC(=O)c3c(Cl)cccc3Cl)c2)cc1)c1c(Cl)cccc1Cl,IC50,[16],> 10 µM
COc1cc(C(=O)Oc2ccc(/C=C/c3cc(OC(=O)c4cc(OC)c(OC)c(OC)c4)cc(OC(=O)c4cc(OC)c(OC)c(OC)c4)c3)cc2)cc(OC)c1OC,IC50,[16],> 10 µM
O=C(/C=C/c1ccc(O)cc1)Oc1ccc(/C=C/c2cc(OC(=O)/C=C/c3ccc(O)cc3)cc(OC(=O)/C=C/c3ccc(O)cc3)c2)cc1,IC50,[16],> 10 µM
O=C(/C=C/c1ccccc1)Oc1ccc(/C=C/c2cc(OC(=O)/C=C/c3ccccc3)cc(OC(=O)/C=C/c3ccccc3)c2)cc1,IC50,[16],> 10 µM
CC(C)C(=O)Oc1ccc(/C=C/c2cc(OC(=O)C(C)C)cc(OC(=O)C(C)C)c2)cc1,Activity,[19],63.7%
same,Activity,[20],0.49%
same,Activity,[21],2.14%
same,Activity,[22],0.45%
same,Activity,ALL5 [23],Active
same,Activity,[24],26.1%
same,Activity,[25],0.34%
same,Activity,[26],23.1%
same,Activity,[27],6.34%
same,Activity,[28],48.1%
same,Activity,[29],9.11%
same,Activity,[30],0.21%
same,Activity,[31],2.02%
same,IC50,[16],5.1 µM
same,Activity,[32],72.5%
same,Activity,[33],93.6%
same,Activity,[34],5.76%
same,Activity,HeLa,inactive
same,Activity,[35],44.8%
CC(=O)c1c(C)c2cnc(Nc3ccc(N4CCNCC4)cn3)nc2n(C2CCCC2)c1=O [PALBOCICLIB],Activity,[36],0.8%
same,Activity,[37],0.29%
same,Activity,[38],98.1%
same,Activity,[39],0.76%
COc1ccc(/C=C/C(=O)Oc2ccc(/C=C/c3cc(OC(=O)/C=C/c4ccc(OC)c(OC)c4)cc(OC(=O)/C=C/c4ccc(OC)c(OC)c4)c3)cc2)cc1OC,IC50,[16],> 10 µM
COc1cc(/C=C/C(=O)Oc2ccc(/C=C/c3cc(OC(=O)/C=C/c4cc(OC)c(O)c(OC)c4)cc(OC(=O)/C=C/c4cc(OC)c(O)c(OC)c4)c3)cc2)cc(OC)c1O,IC50,[16],> 10 µM
CC(C)CC(=O)Oc1ccc(/C=C/c2cc(OC(=O)CC(C)C)cc(OC(=O)CC(C)C)c2)cc1,Activity,[19],69.9%
same,Activity,[20],0.86%
same,Activity,[21],9.6%
same,Activity,[22],0.46%
same,Activity,ALL5 [23],Active
same,Activity,[24],24.5%
same,Activity,[25],2.2%
same,Activity,[26],16.4%
same,Activity,[27],5.14%
same,Activity,[28],59.4%
same,Activity,[29],4.32%
same,Activity,[30],0.28%
same,Activity,[31],6.99%
same,IC50,[16],4.9 µM
same,Activity,[32],66.4%
same,Activity,[33],91.6%
same,Activity,[34],7.6%
same,Activity,HeLa,inactive
same,Activity,[35],32.5%
O=C(Oc1ccc(/C=C/c2cc(OC(=O)c3ccccc3)cc(OC(=O)c3ccccc3)c2)cc1)c1ccccc1,IC50,[16],> 10 µM
COc1cc(/C=C/C(=O)Oc2ccc(/C=C/c3cc(OC(=O)/C=C/c4ccc(O)c(OC)c4)cc(OC(=O)/C=C/c4ccc(O)c(OC)c4)c3)cc2)ccc1O,IC50,[16],10 µM
O=C(/C=C/c1cccc(O)c1)Oc1ccc(/C=C/c2cc(OC(=O)/C=C/c3cccc(O)c3)cc(OC(=O)/C=C/c3cccc(O)c3)c2)cc1,IC50,[16],10 µM
